Test results as given in ChEMBL document CHEMBL1201862, “PubChem BioAssay data set” (2004).
Calls of active or inactive are those of the source.

Legend:
Vero [1] = assay: cells; format: functional, cell-based; settings: Chlorocebus sabaeus
Vero [2] = assay: cells; format: functional; settings: Chlorocebus sabaeus
Vero [3] = assay: Vero cell toxicity, dose response, cytotoxicity control, plate reader, cherry-pick samples (AID 687020); format: functional, cell-based; settings: Chlorocebus sabaeus
Cytochrome P450 3A4 = Cytochrome P450 3A4 (Homo sapiens, UniProt P08684);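 note: CYP3A4 tested as one member of a cytochrome P450 panel screen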
Sequence of Cytochrome P450 3A4 (P08684 whole entry): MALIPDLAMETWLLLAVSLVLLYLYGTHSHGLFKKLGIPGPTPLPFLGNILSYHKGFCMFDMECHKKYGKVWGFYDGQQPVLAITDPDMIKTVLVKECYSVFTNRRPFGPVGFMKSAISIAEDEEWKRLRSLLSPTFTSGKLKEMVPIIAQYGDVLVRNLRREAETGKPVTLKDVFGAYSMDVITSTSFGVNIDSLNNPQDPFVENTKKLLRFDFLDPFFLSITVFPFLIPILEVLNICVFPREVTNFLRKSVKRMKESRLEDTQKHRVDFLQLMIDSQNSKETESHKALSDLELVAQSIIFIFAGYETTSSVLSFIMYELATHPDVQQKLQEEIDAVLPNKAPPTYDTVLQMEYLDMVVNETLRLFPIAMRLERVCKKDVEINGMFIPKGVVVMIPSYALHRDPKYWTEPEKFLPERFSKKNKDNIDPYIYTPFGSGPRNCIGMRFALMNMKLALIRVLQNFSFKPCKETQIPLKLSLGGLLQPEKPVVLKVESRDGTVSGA

[4] = growth suppression of PTEN-null colon cells, dose response, cell-based, HCT116 PTEN knockout (AID 1047); format: functional;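 note: HCT116 colon tumor cells with PTEN knocked out; cells exposed to compound for 60 hours before readout; potency for loss of cell viability measured by luminescence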
[5] = target: T1, Fructose-bisphosphate aldolase (Mycobacterium tuberculosis, UniProt P9WQA3); assay: Fluorescence-based biochemical high throughput dose response assay for inhibitors of the fructose-bisphosphate aldolase (FBA) of M. tuberculosis.; format: functional
T1 sequence (P9WQA3 whole entry): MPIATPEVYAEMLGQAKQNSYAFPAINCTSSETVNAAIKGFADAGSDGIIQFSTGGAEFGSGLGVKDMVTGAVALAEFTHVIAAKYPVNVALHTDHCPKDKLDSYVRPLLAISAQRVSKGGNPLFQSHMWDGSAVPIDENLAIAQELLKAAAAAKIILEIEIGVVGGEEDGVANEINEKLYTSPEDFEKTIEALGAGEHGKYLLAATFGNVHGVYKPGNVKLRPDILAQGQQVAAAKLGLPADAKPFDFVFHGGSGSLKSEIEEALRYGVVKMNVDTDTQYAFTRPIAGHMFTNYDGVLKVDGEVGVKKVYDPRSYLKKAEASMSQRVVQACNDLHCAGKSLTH

[6] = HEp-2 cell cytotoxicity, dose response, cytotoxicity control for RSV inhibitor project, HTS (AID 2410); format: functional; settings: human respiratory syncytial virus
Cytochrome P450 2C9 = Cytochrome P450 2C9 (Homo sapiens, UniProt P11712)
Sequence of Cytochrome P450 2C9 (P11712 whole entry, the tested form may be a part): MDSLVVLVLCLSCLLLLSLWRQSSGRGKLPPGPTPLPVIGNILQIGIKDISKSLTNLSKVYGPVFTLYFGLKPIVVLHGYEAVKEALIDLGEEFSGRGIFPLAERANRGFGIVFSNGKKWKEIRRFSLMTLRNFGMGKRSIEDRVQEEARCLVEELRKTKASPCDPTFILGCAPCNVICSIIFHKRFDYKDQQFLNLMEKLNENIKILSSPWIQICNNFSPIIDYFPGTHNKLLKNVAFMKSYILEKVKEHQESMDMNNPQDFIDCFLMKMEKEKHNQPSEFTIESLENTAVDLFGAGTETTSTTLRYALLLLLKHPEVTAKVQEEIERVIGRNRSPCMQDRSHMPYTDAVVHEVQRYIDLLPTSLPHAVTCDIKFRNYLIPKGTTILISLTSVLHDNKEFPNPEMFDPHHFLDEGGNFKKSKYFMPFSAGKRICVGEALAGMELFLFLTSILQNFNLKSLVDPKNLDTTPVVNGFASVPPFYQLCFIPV

[7] = target: T2, Sentrin-specific protease 1 (Homo sapiens, UniProt Q9P0U3); assay: Dose response confirmation of small molecule inhibitors of the catalytic domain of the SUMO protease, SENP1 in a FRET assay.; format: functional; settings: read-out: IC50_Mean
T2 sequence (Q9P0U3 whole entry): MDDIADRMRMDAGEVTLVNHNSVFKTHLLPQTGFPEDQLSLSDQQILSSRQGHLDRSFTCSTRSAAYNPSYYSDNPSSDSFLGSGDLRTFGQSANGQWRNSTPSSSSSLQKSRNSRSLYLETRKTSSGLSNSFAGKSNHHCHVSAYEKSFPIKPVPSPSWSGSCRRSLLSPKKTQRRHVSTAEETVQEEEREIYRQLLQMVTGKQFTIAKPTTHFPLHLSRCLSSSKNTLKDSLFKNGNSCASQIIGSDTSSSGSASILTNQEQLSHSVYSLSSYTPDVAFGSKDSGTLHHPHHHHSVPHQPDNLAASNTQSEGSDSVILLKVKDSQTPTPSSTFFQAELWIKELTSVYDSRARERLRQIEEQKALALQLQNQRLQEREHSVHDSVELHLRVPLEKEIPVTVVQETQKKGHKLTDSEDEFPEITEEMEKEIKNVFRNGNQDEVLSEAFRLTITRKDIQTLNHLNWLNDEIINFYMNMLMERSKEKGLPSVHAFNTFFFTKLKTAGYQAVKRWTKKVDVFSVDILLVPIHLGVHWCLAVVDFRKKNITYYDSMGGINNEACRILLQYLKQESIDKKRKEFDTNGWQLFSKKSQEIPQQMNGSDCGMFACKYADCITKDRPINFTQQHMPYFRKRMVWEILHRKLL

Cytochrome P450 2C19 = Cytochrome P450 2C19 (Homo sapiens, UniProt P33261); assay: Cytochrome panel assay with activity outcomes. Panel member name: p450-cyp2c19 Compounds with AC50 equal or less than 10 uM are considered active; format: functional; settings: read-out: AC50
Sequence of Cytochrome P450 2C19 (P33261 whole entry): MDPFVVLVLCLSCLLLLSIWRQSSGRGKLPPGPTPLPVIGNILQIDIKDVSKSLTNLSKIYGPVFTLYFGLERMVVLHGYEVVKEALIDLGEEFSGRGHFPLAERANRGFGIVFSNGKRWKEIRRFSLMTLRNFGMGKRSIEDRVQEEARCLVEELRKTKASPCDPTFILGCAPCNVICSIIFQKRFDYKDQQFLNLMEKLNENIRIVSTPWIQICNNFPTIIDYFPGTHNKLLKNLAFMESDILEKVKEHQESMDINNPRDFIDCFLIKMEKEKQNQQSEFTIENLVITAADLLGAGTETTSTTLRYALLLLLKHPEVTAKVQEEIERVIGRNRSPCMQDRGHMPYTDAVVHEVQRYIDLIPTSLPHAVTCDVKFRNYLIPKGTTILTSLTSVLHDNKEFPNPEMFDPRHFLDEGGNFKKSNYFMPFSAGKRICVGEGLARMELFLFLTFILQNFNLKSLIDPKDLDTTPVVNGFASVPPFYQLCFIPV

P388 = assay: cells; format: functional; settings: Mus musculus
P388/ADR = assay: cells; format: functional; settings: Mus musculus
SN12K1 = assay: cells; format: functional; settings: Homo sapiens
[8] = target: Photoreceptor-specific nuclear receptor (Homo sapiens, UniProt Q9Y5X4); format: functional, cell-based;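 note: CHO-S cells with Gal4-NCOR and VP16-NR2E3 two-hybrid luciferase reporter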
Sequence of Photoreceptor-specific nuclear receptor (Q9Y5X4 whole entry, the tested form may be a part): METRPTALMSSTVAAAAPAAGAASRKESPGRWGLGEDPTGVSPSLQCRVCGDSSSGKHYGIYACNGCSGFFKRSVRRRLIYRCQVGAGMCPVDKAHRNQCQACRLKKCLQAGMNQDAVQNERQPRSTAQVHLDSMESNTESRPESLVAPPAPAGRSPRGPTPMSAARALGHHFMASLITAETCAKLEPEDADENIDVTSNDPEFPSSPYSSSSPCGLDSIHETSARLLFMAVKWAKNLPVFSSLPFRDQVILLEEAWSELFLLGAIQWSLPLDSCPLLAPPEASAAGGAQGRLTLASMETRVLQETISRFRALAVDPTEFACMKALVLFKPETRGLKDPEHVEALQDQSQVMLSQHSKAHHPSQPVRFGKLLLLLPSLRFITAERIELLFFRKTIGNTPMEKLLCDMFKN

[9] = StAR promoter reporter inhibition counter-screen, dose response, counter-screen for LRH-1 inverse agonist project, cell-based, luminescence, luciferase reporter (AID 651969); format: functional
[10] = target: Nuclear receptor subfamily 5 group A member 2 (Homo sapiens, UniProt O00482); format: functional, cell-based;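 note: HEK293T cells transfected with LRH-1 and a StAR promoter luciferase reporter; potency for inhibitors that lower LRH-1 driven reporter light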
Sequence of Nuclear receptor subfamily 5 group A member 2 (O00482 whole entry): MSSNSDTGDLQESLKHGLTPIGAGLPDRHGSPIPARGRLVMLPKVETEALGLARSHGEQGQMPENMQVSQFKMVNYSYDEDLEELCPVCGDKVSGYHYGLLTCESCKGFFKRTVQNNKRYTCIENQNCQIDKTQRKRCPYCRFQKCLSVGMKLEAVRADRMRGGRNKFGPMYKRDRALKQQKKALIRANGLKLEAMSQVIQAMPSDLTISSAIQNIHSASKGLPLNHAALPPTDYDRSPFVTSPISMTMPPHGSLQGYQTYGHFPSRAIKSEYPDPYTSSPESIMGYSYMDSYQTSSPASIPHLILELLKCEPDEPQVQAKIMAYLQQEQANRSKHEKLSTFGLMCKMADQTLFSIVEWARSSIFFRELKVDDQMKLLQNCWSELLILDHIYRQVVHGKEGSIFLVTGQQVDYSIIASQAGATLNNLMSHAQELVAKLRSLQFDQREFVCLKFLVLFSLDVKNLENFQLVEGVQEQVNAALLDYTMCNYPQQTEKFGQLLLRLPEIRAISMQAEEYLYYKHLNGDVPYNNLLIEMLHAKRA

Steroidogenic factor 1 = Steroidogenic factor 1 (Homo sapiens, UniProt Q13285); assay: Counterscreen for inverse agonists of the liver receptor homolog-1 (LRH-1; NR5A2): Luminescence-based cell-based high throughput dose response assay to identify inverse agonists of the Steroidogenic Factor 1 Nuclear Receptor (SF1; NR5A1).; format: functional
Sequence of Steroidogenic factor 1 (Q13285 whole entry): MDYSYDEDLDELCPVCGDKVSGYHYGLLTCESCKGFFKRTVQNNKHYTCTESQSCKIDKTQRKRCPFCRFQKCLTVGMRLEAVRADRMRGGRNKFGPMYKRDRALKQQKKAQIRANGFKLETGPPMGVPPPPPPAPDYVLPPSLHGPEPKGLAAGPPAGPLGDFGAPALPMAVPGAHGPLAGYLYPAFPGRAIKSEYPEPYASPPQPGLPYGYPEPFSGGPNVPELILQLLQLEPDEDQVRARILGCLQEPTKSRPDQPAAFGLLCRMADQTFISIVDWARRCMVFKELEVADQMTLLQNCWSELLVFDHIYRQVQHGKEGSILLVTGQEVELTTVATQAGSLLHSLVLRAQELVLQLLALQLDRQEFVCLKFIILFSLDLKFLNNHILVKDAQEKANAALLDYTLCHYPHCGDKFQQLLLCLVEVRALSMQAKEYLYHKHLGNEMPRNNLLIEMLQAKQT

[11] = target: T3, Ubiquitin-conjugating enzyme E2 N (Homo sapiens, UniProt P61088); format: functional;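 note: Dose-response confirmation in a TR-FRET assay detecting UBC13-driven polyubiquitin chain formation, inhibition measured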
T3 sequence (P61088 whole entry): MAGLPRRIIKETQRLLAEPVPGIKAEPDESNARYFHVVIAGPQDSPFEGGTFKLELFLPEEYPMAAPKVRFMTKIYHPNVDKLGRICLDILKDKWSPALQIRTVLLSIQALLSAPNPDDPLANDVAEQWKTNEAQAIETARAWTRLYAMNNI

[12] = target: T4, High affinity choline transporter 1 (Homo sapiens, UniProt Q9GZV3); assay: CHT inhibitors, dose response, cell-based, 5-point CRC, membrane potential dye (AID 504840); format: functional
T4 sequence (Q9GZV3 whole entry): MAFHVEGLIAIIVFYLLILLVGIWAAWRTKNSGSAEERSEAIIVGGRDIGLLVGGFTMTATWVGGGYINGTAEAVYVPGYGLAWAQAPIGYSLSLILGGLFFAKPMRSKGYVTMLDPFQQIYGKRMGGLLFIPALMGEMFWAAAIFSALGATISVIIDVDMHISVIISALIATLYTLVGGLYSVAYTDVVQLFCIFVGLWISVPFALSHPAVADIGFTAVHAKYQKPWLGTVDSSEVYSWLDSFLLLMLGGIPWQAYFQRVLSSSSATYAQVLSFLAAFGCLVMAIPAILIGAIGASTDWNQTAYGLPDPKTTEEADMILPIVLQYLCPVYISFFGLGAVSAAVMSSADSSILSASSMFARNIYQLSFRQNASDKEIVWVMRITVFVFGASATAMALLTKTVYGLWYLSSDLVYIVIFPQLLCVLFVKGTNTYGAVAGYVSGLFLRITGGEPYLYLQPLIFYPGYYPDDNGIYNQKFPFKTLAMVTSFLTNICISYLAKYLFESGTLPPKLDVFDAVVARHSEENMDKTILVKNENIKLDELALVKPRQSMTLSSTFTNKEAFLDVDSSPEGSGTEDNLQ

[13] = target: T4, High affinity choline transporter 1; assay: CHT inhibitors, dose response, cell-based, 10-point CRC, membrane potential dye (AID 588401); format: functional;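 note: membrane potential dye fluorescence of choline-evoked depolarization via CHT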
CAAX prenyl protease 2 = target: T5, CAAX prenyl protease 2 (Saccharomyces cerevisiae S288c, UniProt Q03530); format: biochemical
T5 sequence (Q03530 whole entry): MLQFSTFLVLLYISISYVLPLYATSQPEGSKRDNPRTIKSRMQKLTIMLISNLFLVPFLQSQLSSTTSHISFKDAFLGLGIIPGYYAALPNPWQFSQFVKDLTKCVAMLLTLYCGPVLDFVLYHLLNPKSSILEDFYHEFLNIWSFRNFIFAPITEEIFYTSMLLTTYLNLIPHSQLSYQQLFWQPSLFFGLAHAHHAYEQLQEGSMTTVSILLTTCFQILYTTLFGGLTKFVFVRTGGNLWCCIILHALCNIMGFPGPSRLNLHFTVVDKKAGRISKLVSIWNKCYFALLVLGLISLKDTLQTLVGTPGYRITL

[14] = target: T6, Nuclear receptor subfamily 0 group B member 1 (Homo sapiens, UniProt P51843); format: functional, cell-based;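 note: HEK293T cells transfected with SF-1 and DAX-1 plus StAR promoter luciferase reporter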
T6 sequence (P51843 whole entry): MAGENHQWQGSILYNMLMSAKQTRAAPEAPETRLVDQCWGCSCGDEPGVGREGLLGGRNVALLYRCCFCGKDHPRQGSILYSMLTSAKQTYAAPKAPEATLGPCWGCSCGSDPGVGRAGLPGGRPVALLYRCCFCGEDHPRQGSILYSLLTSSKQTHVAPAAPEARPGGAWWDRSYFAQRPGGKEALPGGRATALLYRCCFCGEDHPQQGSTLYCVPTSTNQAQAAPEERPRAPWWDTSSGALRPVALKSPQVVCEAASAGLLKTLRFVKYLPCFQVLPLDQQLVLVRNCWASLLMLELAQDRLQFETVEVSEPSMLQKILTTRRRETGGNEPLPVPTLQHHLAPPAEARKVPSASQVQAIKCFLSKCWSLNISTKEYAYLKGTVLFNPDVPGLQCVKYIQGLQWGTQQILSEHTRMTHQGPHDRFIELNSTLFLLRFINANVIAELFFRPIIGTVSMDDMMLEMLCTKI

cells = format: functional, cell-based
[15] = Luminescence Cell-Based Dose Retest to Confirm Inhibitors of Cancer Stem Cells. [Related pubchem assays (depositor defined):AID2717, AID2721]; format: functional; settings: Homo sapiens

## Cc1ccc(OCCCCCCN2CCNCC2)c(Br)c1
Vero [1]
  IC50: 19.7 µM (active)
Vero [2]
  CC50: 21.8 µM (active)

## O=C1c2ccccc2/C(=C\c2ccc(Br)nc2)N1c1ccccc1
Vero [3]
  AC50: 38.8 µM (active)

## c1ccc(CCCCN2CCC(c3ccccc3)CC2)cc1
Cytochrome P450 3A4
  AC50: inconclusive

## C=CCNc1nc(Nc2ccc(-c3nc4ccccc4o3)cc2)nc(N2CCOCC2)n1
[4]
  EC50: 43.5 µM (active)
[5]
  IC50: 0.213 µM (active)
[6]
  CC50: 27.3 µM (active)

## O=C1NC(=S)N/C1=C/c1cccc([N+](=O)[O-])c1O
Cytochrome P450 2C9
  AC50: 12.6 µM (inconclusive)
[7]
  IC50: 37.4 µM (inactive)

## CCC(C)NC(=O)c1cnn2c(C)c3c(nc12)CCCC3 (centres undefined)
Cytochrome P450 2C19
  AC50: 31.6 µM (inconclusive)
Cytochrome P450 3A4
  AC50: inconclusive

## N=C(N)NCCCCCCC(=O)NC(O)C(=O)NCCCCNCCCN (centres undefined)
P388
  GI50: 30.1 µM (inactive)
P388/ADR
  GI50: 55.2 µM (inactive)
SN12K1
  GI50: 731 µM (inactive)

## COc1ccc(S(=O)(=O)N2CCCCC2)cc1N=C(S)Nc1ccccc1
[8]
  IC50: 1.22 µM (active)

## COc1ccc(NC(=O)c2sc(=O)n(Cc3cccc(C(F)(F)F)c3)c2C)cc1OC
[8]
  IC50: 13.9 µM (inactive)

## CC(C)(Oc1ccc(Cl)cc1)C(=O)OCC(=O)NCCc1ccccc1
[9]
  IC50: 35.9 µM (inactive)
[10]
  IC50: 5.98 µM (active)
Steroidogenic factor 1
  IC50: 6.16 µM (active)

## CCNC(=O)NC(=O)COC(=O)c1ccccc1SCC(=O)NC(=O)NCC
[5]
  IC50: 0.969 µM (active)

## O=C1CCN(CCc2ccccc2)CCN1[C@H](COc1ccccc1)c1ccccc1
Vero [3]
  AC50: 21.8 µM (active)

## CCOC(=O)CC[C@H](NC(=O)Cn1cnc2c(OCc3ccccc3)ncnc21)C(=O)OCC
Vero [3]
  AC50: 36 µM (active)

## NC(=O)CCCn1c(C(=O)c2cc(Cl)c(N)c(Cl)c2)c2ccc(C(F)(F)F)cc2[n+]1[O-]
[11]
  IC50: > 20 µM (inactive)
[12]
  IC50: 4.47 µM (active)
[13]
  IC50: 4.22 µM (active)
CAAX prenyl protease 2
  AC50: 3.5 µM (active)

## CN1CCN(c2ncc3nc(-c4ccc(Cl)cc4)c(=O)n(Cc4cccs4)c3n2)CC1
Cytochrome P450 3A4
  AC50: inconclusive

## CCOc1ccc(NC(=O)COC(=O)COc2cccc3c2OC(C)(C)C3)cc1
[9]
  IC50: 35.9 µM (inactive)
[10]
  IC50: 15.5 µM (inactive)
Steroidogenic factor 1
  IC50: 2.55 µM (active)

## Cc1csc(/N=C(/NCCN2CCOCC2)Nc2nc(C)cs2)n1
P388
  GI50: > 31.6 µM (inactive)
P388/ADR
  GI50: > 80.4 µM (inactive)
SN12K1
  GI50: > 100 µM (inactive)

## C/C=C/C1=CC(=O)C(O)C1O (centres undefined)
P388
  GI50: 15 µM (inactive)
P388/ADR
  GI50: 17.9 µM (inactive)
SN12K1
  GI50: 28.1 µM (inactive)

## O=c1oc2ccccc2cc1-c1ccccc1
[5]
  IC50: 2.78 µM (active)

## COc1cccc(NC(=O)[C@H](NC(=O)[C@@H]2Cc3ccccc3CN2)c2ccccc2)c1
[14]
  IC50: > 67.5 µM (inactive)
cells
  IC50: > 67.5 µM (inactive)

## CNC(=O)[C@H]1O[C@@H](n2cnc3c(NCc4cccc(I)c4)ncnc32)[C@H](O)[C@@H]1O [IB-MECA]
[12]
  IC50: 2.37 µM (active)
[13]
  IC50: 1.83 µM (active)

## CCNc1cc(Cl)nc(SC)n1
[12]
  IC50: 4.88 µM (active)
[13]
  IC50: 1.79 µM (active)

## Cc1ccc(C(C[N+](=O)[O-])c2c(-c3ccccc3O)n[nH]c2O)cc1 (centres undefined)
Vero [1]
  IC50: > 25 µM (active)
Vero [2]
  CC50: 9.3 µM (active)

## CCC(C)NC(=O)c1ccc2c(c1)N(Cc1ccccc1)C(=O)CS2 (centres undefined)
[9]
  IC50: 35.9 µM (inactive)
[10]
  IC50: 16.3 µM (inactive)
Steroidogenic factor 1
  IC50: 5.68 µM (active)

## COC(=O)C(C/C=C(\C)c1ccc(Cl)cc1)C(C)=O (centres undefined)
P388
  GI50: 20 µM (inactive)
P388/ADR
  GI50: 23.6 µM (inactive)
SN12K1
  GI50: 21.8 µM (inactive)

## CCCCCCC[C@@H](C/C=C/CCC(=O)N(C)C/C(=C/Cl)C/C(=C\C(=O)N1CC(OC)=CC1=O)OC)OC
[14]
  IC50: > 0.278 µM (active)
cells
  IC50: > 67.5 µM (inactive)
[15]
  AC50: 4.12 µM (active)
